From patent US20070128217A1 (priority 2003, published 2007)

How the values were obtained:
[1] = test system: antibodies in sera from SARS patients (sera 1a, 1b, 2, 6, 37, 62, London, SARS-yellow, SARS-green); format: binding, human; set-up: Binding of serum 6 to linear peptides of protein X1 of SARS-CoV Urbani / Binding of serum 37 to linear peptides of protein X1 of SARS-CoV Urbani / Binding of serum 6 to looped/cyclic peptide (PEPSCAN-ELISA) / Binding of serum 37 to looped/cyclic peptide (PEPSCAN-ELISA) / Binding of serum 37 to looped/cyclic peptides of protein X1 of SARS-CoV Urbani / Binding of serum 6 to linear peptides of protein X2 / Binding of serum 37 to linear peptides of protein X2 / Binding of serum 37 to looped/cyclic peptides of protein X2 of SARS-CoV Urbani / Binding of serum 6 to linear peptides of protein M of SARS-CoV Urbani / Binding of serum 37 to linear peptides of protein M of SARS-CoV Urbani / Binding of serum 6 to looped/cyclic peptides of protein M of SARS-CoV Urbani / Binding of serum 37 to looped/cyclic peptides of protein M of SARS-CoV Urbani / Binding of serum 6 to linear peptides of protein X3 of SARS-CoV Urbani / Binding of serum 37 to linear peptides of protein X3 of SARS-CoV Urbani / Binding of serum 37 to looped/cyclic peptides of protein X3 of SARS-CoV Urbani / Binding of serum 6 to linear peptides of protein X4 of SARS-CoV Urbani / Binding of serum 37 to linear peptides of protein X4 of SARS-CoV Urbani / Binding of serum 37 to looped/cyclic peptides of protein X4 of SARS-CoV Urbani / Binding of serum 6 to linear peptides of protein X5 of SARS-CoV Urbani / Binding of serum 37 to linear peptides of protein X5 of SARS-CoV Urbani / Binding of serum 37 to looped/cyclic peptides of protein X5 of SARS-CoV Urbani / Binding of serum 6 to linear peptides of protein N of SARS-CoV Urbani / Binding of serum 37 to linear peptides of protein N of SARS-CoV Urbani / Binding of serum 6 to linear peptide (PEPSCAN-ELISA) / Binding of serum 1a to looped/cyclic peptides of protein N of SARS-CoV Urbani / Binding of serum 1b to looped/cyclic peptides of protein N of SARS-CoV Urbani / Binding of serum 2 to looped/cyclic peptides of protein N of SARS-CoV Urbani / Binding of serum 6 to looped/cyclic peptides of protein N of SARS-CoV Urbani / Binding of serum 37 to looped/cyclic peptides of protein N of SARS-CoV Urbani / Binding of serum 62 to looped/cyclic peptides of protein N of SARS-CoV Urbani / Binding of serum London to looped/cyclic peptides of protein N of SARS-CoV Urbani / Binding of serum SARS-green to looped/cyclic peptides of protein N of SARS-CoV Urbani: unit not given here
[2] = test system: rabbit serum obtained by immunizing a rabbit with the SARS-CoV strain Frankfurt 1; format: binding; set-up: Binding of a rabbit serum to linear peptides / Binding of a rabbit serum to looped peptides / Rabbit serum linear peptides / Rabbit serum looped peptides / Binding of a rabbit serum to linear peptides of protein N of SARS-CoV Urbani (Rabbit serum linear peptides) / Binding of a rabbit serum to looped/cyclic peptides of protein N of SARS-CoV Urbani (Rabbit serum looped peptides): unit not given here
[3] = test system: recombinant human anti-SARS-CoV antibody 03-018; format: binding; set-up: Binding of antibody 03-018 to linear peptides of the N protein of SARS-CoV Urbani / Binding of antibody 03-018 to looped/cyclic peptides of the N protein of SARS-CoV Urbani: unit not given here
[4] = test system: control sera (pooled serum of ten healthy LUMC hospital workers; commercial negative donor pooled serum from the Dutch bloodbank); format: binding, human; set-up: Binding of Control serum LUMC to linear peptides / Binding of Control serum Blood-bank to linear peptides / Binding of Control serum LUMC to looped peptides / Binding of Control Serum Blood-Bank to Looped peptides / Binding of Control serum LUMC to linear peptides of the protein M of SARS-CoV Urbani / Binding of Control serum Blood-bank to linear peptides of the protein M of SARS-CoV Urbani / Binding of Control serum LUMC to looped peptides of the protein M of SARS-CoV Urbani / Binding of Control Serum Blood-Bank to Looped peptides of the protein M of SARS-CoV Urbani: unit not given here

Row | Sequence | Binding of serum 1a to looped/cyclic peptides of protein N of SARS-CoV Urbani [1] | Binding of serum 1b to looped/cyclic peptides of protein N of SARS-CoV Urbani [1] | Binding of serum 2 to looped/cyclic peptides of protein N of SARS-CoV Urbani [1] | Binding of serum 6 to looped/cyclic peptides of protein N of SARS-CoV Urbani [1] | Binding of serum 37 to looped/cyclic peptides of protein N of SARS-CoV Urbani [1] | Binding of serum 62 to looped/cyclic peptides of protein N of SARS-CoV Urbani [1] | Binding of serum London to looped/cyclic peptides of protein N of SARS-CoV Urbani [1] | Binding of serum SARS-green to looped/cyclic peptides of protein N of SARS-CoV Urbani [1] | Binding of serum SARS-yellow to looped/cyclic peptides of protein N of SARS-CoV Urbani [1] | Binding of a rabbit serum to linear peptides of protein N of SARS-CoV Urbani (Rabbit serum linear peptides) [2] | Binding of a rabbit serum to looped/cyclic peptides of protein N of SARS-CoV Urbani (Rabbit serum looped peptides) [2] | Binding of antibody 03-018 to linear peptides of the N protein of SARS-CoV Urbani [3] | Binding of antibody 03-018 to looped/cyclic peptides of the N protein of SARS-CoV Urbani [3] | Binding of serum 1a to linear peptides of protein N of SARS-CoV Urbani [1] | Binding of serum 1b to linear peptides of protein N of SARS-CoV Urbani [1] | Binding of serum 2 to linear peptides of protein N of SARS-CoV Urbani [1] | Binding of serum 6 to linear peptides of protein N of SARS-CoV Urbani [1] | Binding of serum 37 to linear peptides of protein N of SARS-CoV Urbani [1] | Binding of serum 62 to linear peptides of protein N of SARS-CoV Urbani [1] | Binding of serum London to linear peptides of protein N of SARS-CoV Urbani [1] | also measured
1 | QAFGRRGPEQTQGNF | 0.3 | 0.2 | 0.3 | 0.2 | 0.3 | 0.3 | 0.3 | 0.2 | 0.2 | 0.1 | 0.3 | 0.1 | 0.2 |  |  |  |  |  |  |  | Binding of serum 1a to linear peptide (PEPSCAN-ELISA) [1]: 0.3; Binding of serum 1b to linear peptide (PEPSCAN-ELISA) [1]: 0.1; Binding of serum 2 to linear peptide (PEPSCAN-ELISA) [1]: 0.2; Binding of serum 6 to linear peptide (PEPSCAN-ELISA) [1]: 0.2; Binding of serum 37 to linear peptide (PEPSCAN-ELISA) [1]: 0.6; Binding of serum 62 to linear peptide (PEPSCAN-ELISA) [1]: 0.8; Binding of serum London to linear peptide (PEPSCAN-ELISA) [1]: 0.7; Binding of serum SARS-green to linear peptide (PEPSCAN-ELISA) [1]: 0.2; Binding of serum SARS-yellow to linear peptide (PEPSCAN-ELISA) [1]: 0.4; Binding of Control Serum Blood-Bank to Looped peptides [4]: 0.4; Binding of Control serum Blood-bank to linear peptides [4]: 0.9; Binding of Control serum LUMC to linear peptides [4]: 0.7; Binding of Control serum LUMC to looped peptides [4]: 0.4
2 | QGVPINTNSGPDDQI | 0.5 | 0.4 | 0.6 | 0.4 | 0.6 | 1.0 | 0.6 | 1.3 | 1.7 | 0.2 | 0.8 | 0.1 | 0.1 | 0.3 | 0.2 | 0.2 | 0.2 | 0.9 | 0.6 | 0.5 | Binding of serum SARS-green to linear peptides of protein N of SARS-CoV Urbani [1]: 0.6; Binding of serum SARS-yellow to linear peptides of protein N of SARS-CoV Urbani [1]: 0.6; Binding of Control Serum Blood-Bank to Looped peptides [4]: 1.1; Binding of Control serum Blood-bank to linear peptides [4]: 0.6; Binding of Control serum LUMC to linear peptides [4]: 0.6; Binding of Control serum LUMC to looped peptides [4]: 0.8
3 | QHGKEELRFPRGQGV | 0.4 | 0.3 | 0.5 | 0.4 | 0.6 | 0.4 | 0.6 | 0.4 | 0.7 | 0.2 | 0.5 | 0.1 | 0.2 | 0.2 | 0.2 | 0.3 | 0.1 | 0.7 | 0.7 | 0.5 | Binding of serum SARS-green to linear peptides of protein N of SARS-CoV Urbani [1]: 0.4; Binding of serum SARS-yellow to linear peptides of protein N of SARS-CoV Urbani [1]: 0.6; Binding of Control Serum Blood-Bank to Looped peptides [4]: 0.7; Binding of Control serum Blood-bank to linear peptides [4]: 0.8; Binding of Control serum LUMC to linear peptides [4]: 0.7; Binding of Control serum LUMC to looped peptides [4]: 0.7
4 | QIAQFAPSASAFFGM | 0.5 | 0.3 | 0.5 | 0.3 | 0.8 | 0.8 | 0.5 | 0.5 | 0.5. | 0.1 | 0.5 | 0.1 | 0.3 | 0.3 | 0.1 | 0.2 | 0.2 | 0.7 | 0.6 | 0.5 | Binding of serum SARS-green to linear peptides of protein N of SARS-CoV Urbani [1]: 0.7; Binding of serum SARS-yellow to linear peptides of protein N of SARS-CoV Urbani [1]: 0.7; Control Serum Blood-Bank Looped peptides [4]: 0.9; Control serum Blood-bank linear peptides [4]: 0.9; Control serum LUMC linear peptides [4]: 0.7; Control serum LUMC looped peptides [4]: 0.7
5 | QKKQPTVTLLPAADM |  |  |  |  |  |  |  |  |  | 0.2 | 0.7 | 0.1 | 0.3 | 0.3 | 0.2 | 0.2 | 0.2 | 0.7 | 0.6 | 0.6 | Binding of serum SARS-green to linear peptides of protein N of SARS-CoV Urbani [1]: 0.4; Binding of serum SARS-yellow to linear peptides of protein N of SARS-CoV Urbani [1]: 0.5; Recognition of the peptide by sera of SARS-CoV infected individuals, and form (linear, looped/cyclic) in which it is recognized [1]: recognized in looped/cyclic form; Control Serum Blood-Bank Looped peptides [4]: 0.9; Control serum Blood-bank linear peptides [4]: 0.7; Control serum LUMC linear peptides [4]: 0.6; Control serum LUMC looped peptides [4]: 0.7
